Test results reported in patent US20210198277A1, “AMINE-SUBSTITUTED ARYL OR HETEROARYL COMPOUNDS” (Epizyme, Inc., priority 2016, published 2021).

target: T1, EHMT1 (Homo sapiens, UniProt Q9H9B1); experiment: EHMT1 enzyme assay on peptide substrate (EHMT1 PEP); format: biochemical; settings: read-out: EHMT1 PEP (IC50 μM)
T1 sequence (Q9H9B1 1-1298): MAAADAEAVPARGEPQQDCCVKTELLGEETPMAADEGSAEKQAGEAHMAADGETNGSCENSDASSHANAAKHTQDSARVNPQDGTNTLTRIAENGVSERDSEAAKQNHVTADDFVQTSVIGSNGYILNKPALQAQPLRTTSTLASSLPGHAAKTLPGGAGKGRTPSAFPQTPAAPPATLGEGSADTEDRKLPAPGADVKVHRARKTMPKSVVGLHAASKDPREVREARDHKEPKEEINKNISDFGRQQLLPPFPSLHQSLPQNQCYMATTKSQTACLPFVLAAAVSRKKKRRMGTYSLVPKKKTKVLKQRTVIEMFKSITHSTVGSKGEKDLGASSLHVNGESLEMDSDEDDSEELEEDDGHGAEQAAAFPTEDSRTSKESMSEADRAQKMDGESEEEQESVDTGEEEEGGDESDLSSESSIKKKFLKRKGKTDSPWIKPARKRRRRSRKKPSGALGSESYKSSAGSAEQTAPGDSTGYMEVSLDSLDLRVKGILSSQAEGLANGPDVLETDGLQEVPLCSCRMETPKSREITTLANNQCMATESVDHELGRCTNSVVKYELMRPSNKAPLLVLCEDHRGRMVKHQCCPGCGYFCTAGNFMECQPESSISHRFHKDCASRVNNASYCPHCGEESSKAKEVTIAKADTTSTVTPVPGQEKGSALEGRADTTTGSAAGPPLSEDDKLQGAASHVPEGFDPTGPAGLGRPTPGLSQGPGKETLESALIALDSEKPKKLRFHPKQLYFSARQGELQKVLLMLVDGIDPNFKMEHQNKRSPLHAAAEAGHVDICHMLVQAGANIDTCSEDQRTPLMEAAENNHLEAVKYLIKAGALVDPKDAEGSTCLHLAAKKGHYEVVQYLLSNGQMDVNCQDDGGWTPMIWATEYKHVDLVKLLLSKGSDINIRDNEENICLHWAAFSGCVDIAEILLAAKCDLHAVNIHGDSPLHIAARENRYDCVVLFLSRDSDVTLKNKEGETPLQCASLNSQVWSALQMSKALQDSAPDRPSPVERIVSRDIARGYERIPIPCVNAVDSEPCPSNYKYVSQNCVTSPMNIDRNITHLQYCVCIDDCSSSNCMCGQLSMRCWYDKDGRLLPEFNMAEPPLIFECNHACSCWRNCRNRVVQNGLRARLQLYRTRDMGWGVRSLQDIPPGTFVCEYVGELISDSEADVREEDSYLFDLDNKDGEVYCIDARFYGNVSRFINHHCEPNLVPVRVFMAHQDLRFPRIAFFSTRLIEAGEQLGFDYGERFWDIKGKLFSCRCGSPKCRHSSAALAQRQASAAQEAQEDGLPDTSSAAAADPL

Row | SMILES | IC50 [µM]
1 | CNc1ccnc(Nc2cc(OCCCN3CCCC3)c3cn[nH]c3c2)n1 [Compound 538, N^4-methyl-N^2-(4-(3-(pyrrolidin-1-yl)propoxy)-1H-indazol-6-yl)pyrimidine-2,4-diamine] | 0.1 to 1
2 | CNc1ccnc(Nc2cc(OCCCN3CCCC3)c3[nH]ncc3c2)n1 [Compound 539] | > 10
3 | CNc1ccnc(NC2CCCNC2)n1 (stereo not drawn) [Compound 541, N^4-methyl-N^2-(piperidin-3-yl)pyrimidine-2,4-diamine] | > 10
4 | CNc1ccnc(NC2CCNCC2)n1 [Compound 542, N^4-methyl-N^2-(piperidin-4-yl)pyrimidine-2,4-diamine] | > 10
5 | CCCC1(Nc2nccc(NC)n2)CCCNC1 (stereo not drawn) [Compound 544] | > 10
6 | CCCC1(Nc2nccc(NC)n2)CCNCC1 [Compound 545] | > 10
7 | CNc1ccnc(NC2(C)CCCNC2)n1 (stereo not drawn) [Compound 546, N^4-methyl-N^2-(3-methylpiperidin-3-yl)pyrimidine-2,4-diamine] | > 10
8 | CNc1ccnc(NC2(C)CCNCC2)n1 [Compound 547, N^4-methyl-N^2-(4-methylpiperidin-4-yl)pyrimidine-2,4-diamine] | > 10
9 | CNc1ccnc(N[C@@H]2CC[C@H](N)C2)n1 [Compound 548, N^2-((1R,3S)-3-aminocyclopentyl)-N^4-methylpyrimidine-2,4-diamine] | > 10
10 | CCCCN1CCCC(C)(Nc2nccc(NC)n2)C1 (stereo not drawn) [Compound 549, N^2-(1-butyl-3-methylpiperidin-3-yl)-N^4-methylpyrimidine-2,4-diamine] | > 10
11 | CCCCN1CCC(C)(Nc2nccc(NC)n2)CC1 [Compound 550, N^2-(1-butyl-4-methylpiperidin-4-yl)-N^4-methylpyrimidine-2,4-diamine] | > 10
12 | CNc1cc(C)nc(Nc2ccc(OC)c(OCCCN(C)C3CCC3)c2)n1 [Compound 551, N^2-(3-(3-(cyclobutyl(methyl)amino)propoxy)-4-methoxyphenyl)-N^4,6-dimethylpyrimidine-2,4-diamine] | 0.1 to 1
13 | c1nc(NC2CCNCC2)ncc1OCCCN1CCCC1 [Compound 552] | > 10
14 | CN1CCC(COc2cnc(NCC3CCOCC3)nc2)C1 (stereo not drawn) [Compound 553] | > 10
15 | CN1CCC(COc2ccc(NC3CCNCC3)nc2)C1 (stereo not drawn) [Compound 554] | > 10
16 | CN1CCC(COc2cnc(NC3CCNCC3)nc2)C1 (stereo not drawn) [Compound 555] | > 10
17 | c1nc(NC2CCNCC2)ncc1OCC1CCN(C2CC2)C1 (stereo not drawn) [Compound 556] | > 10
18 | c1nc(NC2CCOCC2)ncc1OCC1CCN(C2CC2)C1 (stereo not drawn) [Compound 557] | > 10
19 | CNc1cc(C)nc(Nc2cnc(OC)c(OC[C@H]3CCN(C4CC4)C3)c2)n1 [Compound 558] | < 0.1
20 | CNc1cc(C)nc(Nc2ccc(OC)c(OCC3CN(C(C)C)C3)c2)n1 [Compound 559] | < 0.1
21 | CCN1CC(C(O)Oc2cc(Nc3nc(C)cc(NC)n3)ccc2OC)C1 (stereo not drawn) [Compound 560] | 0.1 to 1

Row | SMILES | IC50 [µM]
22 | CNc1cc(C)nc(Nc2ccc(OC)c(O)c2)n1 [Compound 561] | > 10
23 | CCN1CC(C(C#N)Oc2cc(Nc3nc(C)cc(NC)n3)ccc2OC)C1 (stereo not drawn) [Compound 562] | 1 to 10
24 | CNc1cc(C)nc(Nc2ccc(OC)c(OC[C@@H]3CCN(C4CCC4)C3)c2)n1 [Compound 563] | < 0.1
25 | CCN1CC(COc2cc(Nc3nccc4[nH]ccc34)ncc2OC)C1 [Compound 564] | < 0.1
26 | COc1cc(Nc2nc(C)cc3[nH]ncc23)ncc1OCCCN1CCCC1 [Compound 565] | 1 to 10
27 | CCN1CC(COc2cc(Nc3cc(NC)ncc3F)ncc2OC)C1 [Compound 566] | 1 to 10
28 | CCN1CC(COc2cc(Nc3cc(NC)nc(C)c3F)ncc2OC)C1 [Compound 567] | 1 to 10
29 | CNc1cc(C)nc(Nc2ccc(OC)c(OC[C@@H]3CCN(C4(C)CC4)C3)c2)n1 [Compound 568] | < 0.1
30 | CCN1CC(COc2cc(Nc3cc(NC)cc(C)n3)cnc2OC)C1 [Compound 569] | < 0.1
31 | CCN1CC[C@@H](COc2cc(Nc3nc(C)cc(NC)n3)ccc2OC)C1 [Compound 571] | < 0.1
32 | COc1ccc(NC2CCNCC2)cc1OCCCN1CCCC1 [Compound 572] | > 10
33 | COc1ccc(NC2CCCNC2)cc1OCCCN1CCCC1 (stereo not drawn) [Compound 573] | 1 to 10
34 | CNc1cc(C)nc(Nc2ccc(OC)c(OCCCN3CC4(CC4)C3)c2)n1 [Compound 574] | 1 to 10
35 | CNc1cc(C)nc(Nc2ccc(OC)c(OCC3CN(C(C)C)C3)c2)n1 [Compound 575] | 0.1 to 1
36 | CNc1cc(C)nc(Nc2ccc(OC)c(OCC3CN(C4CCC4)C3)c2)n1 [Compound 576] | < 0.1
37 | CNc1cc(C)nc(Nc2ccc(OC)c(OCC3CN(C4CCCC4)C3)c2)n1 [Compound 577] | 0.1 to 1
38 | COc1cc(NC2CCCNC2)ccc1OCCCN1CCCC1 (stereo not drawn) [Compound 578] | 1 to 10
39 | COc1cc(NC2CCNCC2)ccc1OCCCN1CCCC1 [Compound 579] | 1 to 10
40 | CNc1cc(C)nc(Nc2ccc(OC)c(OCC3CN(C4CCOC4)C3)c2)n1 (stereo not drawn) [Compound 580] | > 10
41 | COc1cnc(Nc2cccc3[nH]ncc23)cc1OCCCN1CCCC1 [Compound 581] | > 10
42 | COc1ccc(Nc2nccc3[nH]ncc23)cc1OCCCN1CCCC1 [Compound 582] | > 10

Row | SMILES | IC50 [µM]
43 | COc1cnc(Nc2ccnc3[nH]ncc23)cc1OCCCN1CCCC1 [Compound 583] | 1 to 10
44 | CCN1CC(COc2cc(Nc3cccc4nncn34)ncc2OC)C1 [Compound 584] | > 10
45 | COc1cnc(Nc2cccc3nccn23)cc1OCCCN1CCCC1 [Compound 585] | 1 to 10
46 | COc1cnc(Nc2cccn3ccnc23)cc1OCCCN1CCCC1 [Compound 586] | 1 to 10
47 | COc1cc2c(C3CCN(C)CC3)nc(N(C)C)nc2cc1OCCCN1CCCC1 [Compound 587] | < 0.1
48 | CC(C)N1CC(COc2cnc(NC3CCNCC3)nc2)C1 [Compound 588] | > 10
49 | COc1cnc(Nc2cccc3cncn23)cc1OCCCN1CCCC1 [Compound 589] | > 10
50 | COc1ccc(Nc2nc(C)cc(NCC3CCOCC3)n2)cc1OCCCN1CCCC1 [Compound 590] | < 0.1
51 | COc1ncc(Nc2nc(C)cc(NCC3CCOCC3)n2)cc1OCCCN1CCCC1 [Compound 591] | < 0.1
52 | COc1ncc(Nc2nc(C)cc(NCC3CCOCC3)n2)cc1OC[C@@H]1CCN(C(C)C)C1 [Compound 592] | 0.1 to 1
53 | COc1ncc(Nc2nc(C)cc(NC(C)C)n2)cc1OCCCN1CCCC1 [Compound 593] | 0.1 to 1
54 | COc1ncc(Nc2nc(C)cc(NCC3CCOCC3)n2)cc1OC[C@@H]1CCN(C2CCC2)C1 [Compound 594] | < 0.1
55 | COc1ncc(Nc2nc(C)cc(NCC3CCOCC3)n2)cc1OC[C@@H]1CCN(C2CCC2)C1 [Compound 595] | 0.1 to 1
56 | COc1cnc(Nc2cc(C)nc3[nH]ncc23)cc1OCCCN1CCCC1 [Compound 596] | 1 to 10
57 | C/C=C/C(=O)Nc1cc(OCCCN2CCCC2)c(OC)cn1 [Compound 597] | > 10
58 | C/C=C/C(=O)Nc1ccc(OC)c(OCCCN2CCCC2)c1 [Compound 598] | > 10
59 | CCN1CC[C@@H](COc2cc(Nc3nc(C)cc(NC)n3)cnc2OC)C1 [Compound 599] | < 0.1
60 | CNc1cc(C)nc(Nc2ccc(OC)c(OC[C@@H]3CCNC3)c2)n1 [Compound 600] | < 0.1
61 | CCc1cc(NC)nc(Nc2cnc(OC)c(OC[C@@H]3CCN(CC)C3)c2)n1 [Compound 601] | < 0.1
62 | CCN1CC[C@@H](COc2cc(Nc3nc(C)cc(NC(C)C)n3)ccc2OC)C1 [Compound 602] | 0.1 to 1
63 | COc1ccc(Nc2nc(C)cc(NC(C)C)n2)cc1OCCCN1CCCC1 [Compound 603] | < 0.1
